Assay results: article PMC11926880, “Procognitive Potential of Neuroprotective Triazine 5-HT6 Receptor Antagonists Tested on Chronic Activity In Vivo in Rats: Computer-Aided Insight into the Role of Chalcogen-Differences on the Pharmacological Profile” (ACS Chemical Neuroscience, 2025)
Like-named read-outs stand apart in the source and are kept apart here.

Tests used:
[1] = pharmacokinetics in serum after single i.p. administration; type: in vivo, rat; conditions: for Vd/F: read-out: Vz/F; for half-life: read-out: t1/2λz
Procedure: Standard laboratory food (LSM-B) and filtered water as well as environment enrichment were freely available. Animals were randomly divided into treatment groups using a computer-based random order generator. All of the experiments were performed by two observers unaware of the treatment applied between 9:00 and 14:00 on separate groups of animals.
Rats were injected with the investigated compounds once (in pharmacokinetic studies) and for 21 days (in behavioral studies), and afterward, behavioral tests were conducted and tissue collection was done, as required. For pharmacokinetic studies, animals were fasted prior to dosing by withholding food but not water overnight. After dosing, the food was withheld for an additional 8 h. All animals were used only once. Animals were handled every day and weighed every other day in the chronic part of the experiment. Procedures involving animals and their care were conducted in accordance with current European Community and Polish legislations on animal experimentation. Additionally, all efforts were made to minimize animals’ suffering and to use only the number of animals necessary to produce reliable scientific data. […] The research program complies with the commonly accepted ‘3Rs’ (replacement and reduction of animals, refinement of experimental conditions, and procedures to minimize the harm to animals).
Moreover, five tissues (i.e., brain, heart, lungs, kidneys, and liver) were harvested and rinsed with cold saline. Blood was allowed to clot at room temperature for 15–20 min and then centrifuged (3000 rpm for 10 min). The obtained serum and tissues were stored at −80 °C until analysis.
Peak areas were integrated automatically using an EZChrome Elite v. 3.3.2 software (VWR, Darmstadt, Germany) chromatographic workstation.
The mobile phase consisting of methanol −10 mM potassium dihydrogen phosphate buffer (pH 4.6) and acetonitrile (51:40:9, v/v/v) was passed under vacuum through a 0.22 μm filter membrane.
Before analysis, tissue samples were thawed, weighed (200–250 mg), and placed in 5 mL plastic tubes with four volumes (w/v) of PBS (pH 7.4) and homogenized individually using a MICCRA D-1 homogenizer (ART Prozess & Labortechnik GmbH & Co., Germany). Serum (500 μL) or homogenate samples (500 μL) were mixed with an IS solution ((RS)-4-(4-methylpiperazin-1-yl)-6-(1-phenoxypropyl)-1,3,5-triazin-2-amine), 50 ng/mL in methanol. The samples were alkalized with 50 μL of 4 M sodium hydroxide solution, vortex-mixed, and extracted with 1 mL of ethyl acetate/hexane (30/70, v/v) mixture on a shaker (VXR Vibrax, IKA, Germany) for 20 min. After centrifugation (Eppendorf, Mini Spin Plus, Bionovo, Poland), the organic layers were transferred into new Eppendorf tubes containing 100 μL of methanol and 0.1 M sulfuric acid (10/90, v/v) mixture. Then, the samples were shaken and centrifuged again. Finally, 60–90 μL of each acidic layer was injected into the HPLC system.
The method was validated according to the procedures and acceptance criteria recommended for bioanalytical method validation for pharmacokinetic studies.[45]
The serum concentration–time data were analyzed by a noncompartmental method using the WinNonlin 8.2 nonlinear least-squares regression program (Pharsight Corporation, a Certara Company, Princeton, NJ, USA) to obtain pharmacokinetic parameters. […] The area under the serum concentration–time curve from time zero to time t (AUC0–t), where t is the time of the last measurable sample, was calculated according to the linear trapezoidal rule. The AUC from time zero to infinity (AUC0–∞) was estimated as AUC0–t + Ct/λz, where Ct was the serum concentration of the last measurable sample. The clearance (CL/F) was calculated as D/AUC0–∞, and the volume of distribution based on the terminal phase (Vz/F) was estimated as D/(λz·AUC0–∞), where F is the bioavailability of intraperitoneal administration.

rats = conditions: acute administration, male Wistar rats, (+)MK-801; cited from earlier work
[2] = 1.0 mg/kg i.p., single, 1 mg/kg
[3] = male, Wistar, rat, ip, 0.3 mg/kg i.p., single
[4] = male, Wistar, rat, ip, 0.3 mg/kg, 0.3 mg/kg i.p., single
[5] = male, Wistar, rat, ip, 1.0 mg/kg i.p., single
[6] = male, Wistar, rat, ip, 1 mg/kg, 1.0 mg/kg i.p., single

CN1CCN(c2nc(N)nc(C(C)(C)Sc3ccc4ccccc4c3)n2)CC1 [WA-22, 4-(4-methylpiperazin-1-yl)-6-(2-(naphthalen-2-ylthio)propan-2-yl)-1,3,5-triazin-2-amine]
Cmax after 1.0 mg/kg i.p. in relation to 0.3 mg/kg i.p. [1]: 3.8 fold
Cmax ([1]; 0.3 mg/kg i.p., single, 0.3 mg/kg): 18.65 ± 1.87 ng/mL
Cmax [1, 2]: 71.05 ± 26.52 ng/mL
Vz/F [1, 2]: 75.43 ± 28.17 L/kg
t1/2λz [1, 2]: 2.8115 ± 0.7785 h
AUC(0-t) [1, 3]: 14 ng·h/mL
CL/F [1, 3]: 255 mL/min/kg
MRT [1, 3]: 1.61 h
Tmax [1, 3]: 5 min
Cmax ([1]; male, Wistar, rat, ip, 0.3 mg/kg, 0.3 mg/kg i.p., single, read-out: Cmax): 18.7 ng/mL
Vd/F [1, 4]: 28.1 ± 6.41 L/kg
half-life [1, 4]: 1.29 ± 0.349 h
AUC(0-inf) ([1]; male, Wistar, rat, ip, 1 mg/kg i.p., single): 55.9 ng·h/mL
AUC(0-t) [1, 5]: 42.3 ng·h/mL
CL/F [1, 5]: 313 mL/min/kg
MRT [1, 5]: 2.7 h
Tmax [1, 5]: 5 min
Cmax ([1]; male, Wistar, rat, ip, 1 mg/kg, 1.0 mg/kg i.p., single, read-out: Cmax): 71.1 ng/mL
Vd/F [1, 6]: 75.4 L/kg
half-life [1, 6]: 2.81 h
memory-protective action at doses as low as (rats): 0.3 mg/kg
